In patent US20220089710A1, “Method of Treating Signs and Symptoms of Osteoarthritis” (Pfizer Inc., priority 2019, published 2022):

Legend:
[1] = tested on: patients with osteoarthritis (OA) of the knee or hip; details: 5 mg SC;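 note: SC doses every 8 weeks plus twice-daily oral study drug to Week 56, efficacy assessed in all randomized patients given at least one SC dose, by assigned arm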
Description: Patients received a total of seven SC injections, each separated by 8 weeks and daily oral (PO) study medication BID through Week 56.
The Intent-to-Treat (ITT) Population included all patients who were randomized and received at least one dose of SC study drug. This analysis set was primary for all efficacy endpoints, which were analyzed according to randomization assignment. The Safety Population included all patients who received at least one dose of SC study treatment. This analysis set was primary for all safety endpoints, which were analyzed according to treatment received.

[2] = molecular target: NGF (Homo sapiens, UniProt P01138); details: cell culture models; cited from earlier work
NGF, sequence (P01138 122-241): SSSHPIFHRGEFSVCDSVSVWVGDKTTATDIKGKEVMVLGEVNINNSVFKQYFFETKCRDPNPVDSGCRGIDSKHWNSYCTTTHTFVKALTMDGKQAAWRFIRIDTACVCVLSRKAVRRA

[3] = tested on: patients with OA of the knee or hip; assay: Example 2: randomized, double-blind, placebo-controlled study (24-week treatment; SC tanezumab at baseline, week 8, week 16), efficacy; type: in vivo, human; details: for WOMAC Pain subscale Change from Baseline: LS Mean / WOMAC Pain subscale Change from Baseline: LS Mean Difference vs. placebo: Week 2; for PGA-OA: LS Mean (SE) change from Baseline / PGA-OA: LS Mean Difference vs. placebo (SE) / WOMAC Pain: LS Mean Difference vs. placebo (SE) / WOMAC Physical Function: LS Mean (SE) change from Baseline / WOMAC Physical Function: LS Mean Difference vs. placebo (SE) / WOMAC Pain: LS Mean (SE) change from Baseline / % of subjects with ≥50% reduction in the WOMAC Pain subscale / Number of subjects with ≥50% reduction in the WOMAC Pain subscale / WOMAC Pain: LS mean difference±SE versus placebo: Week 24; for WOMAC Pain: LS Mean (SE) change from Baseline: ITT, multiple imputation; for % of subjects with ≥50% reduction in the WOMAC Pain subscale / Number of subjects with ≥50% reduction in the WOMAC Pain subscale: mixed BOCF and LOCF
Description: Key inclusion criteria were Western Ontario and McMaster Universities Osteoarthritis Index (WOMAC) Pain and Physical Function scores in the index joint; a Patient Global Assessment of OA (PGA-OA) score of fair, poor, or very poor; a history of insufficient pain relief or intolerance to acetaminophen, oral NSAID, and either tramadol or opioids (or unwilling to take opioids). […] Co-primary endpoints were change from baseline in WOMAC Pain, WOMAC Physical Function, and PGA-OA scores at week 24 compared with placebo. Three key secondary endpoints were: reduction in the WOMAC Pain subscale of 50%, at Week 24, WOMAC Pain subscale change from Baseline to Week 2, and weekly average pain score (based on daily diary) in the index joint change from Baseline to Week 1. Safety, including adjudication of joint safety events, was assessed.

tanezumab: humanized immunoglobulin G Type 2 (IgG2) monoclonal antibody directed against human nerve growth factor (NGF); SEQ ID NOs: 9 or 11 and 10
WOMAC Pain ≥30% reduction: % of patients ([1]; Week 16): 72.9%
WOMAC Pain ≥30% reduction: number of patients ([1]; Week 16): 725
WOMAC Pain ≥50% reduction: % of patients ([1]; Week 16): 56.5%
WOMAC Pain ≥50% reduction: number of patients ([1]; Week 16): 562
WOMAC Pain ≥70% reduction: % of patients ([1]; Week 16): 35.0%
WOMAC Pain ≥70% reduction: number of patients ([1]; Week 16): 348
WOMAC Pain ≥90% reduction: % of patients ([1]; Week 16): 12.7%
WOMAC Pain ≥90% reduction: number of patients ([1]; Week 16): 126
WOMAC Pain: LS Mean (SE) change from Baseline ([1]; Week 16): −3.33 (0.11)
WOMAC Pain: LS Mean Difference vs. NSAID (SE) ([1]; Week 16): −0.26 (0.11)
WOMAC Physical Function: LS Mean (SE) change from Baseline ([1]; Week 16): −3.39 (0.11)
WOMAC Physical Function: LS Mean Difference vs. NSAID (SE) ([1]; Week 16): −0.31 (0.10)
PGA-OA: LS Mean Difference vs. NSAID ([1]; Week 56): 0.06
PGA-OA: LS Mean change from Baseline ([1]; Week 56): −0.60
WOMAC Pain: LS Mean Difference vs. NSAID ([1]; Week 56): 0.05
WOMAC Pain: LS Mean change from Baseline ([1]; Week 56): −2.37
WOMAC Physical Function: LS Mean Difference vs. NSAID ([1]; Week 56): 0.05
WOMAC Physical Function: LS Mean change from Baseline ([1]; Week 56): −2.36
blocking of the activity of NGF [2]: blocks the activity of NGF effectively
WOMAC Pain subscale Change from Baseline: LS Mean ([3]; 2.5 mg SC): −2.02
WOMAC Pain subscale Change from Baseline: LS Mean Difference vs. placebo ([3]; 2.5 mg SC): −0.67
PGA-OA: LS Mean (SE) change from Baseline ([3]; 2.5 mg SC): −0.82 (0.06)
PGA-OA: LS Mean Difference vs. placebo (SE) ([3]; 2.5 mg SC): −0.11 (0.07)
WOMAC Pain: LS Mean Difference vs. placebo (SE) ([3]; 2.5 mg SC): −0.46 (0.18)
WOMAC Physical Function: LS Mean (SE) change from Baseline ([3]; 2.5 mg SC): −2.70 (0.17)
WOMAC Physical Function: LS Mean Difference vs. placebo (SE) ([3]; 2.5 mg SC): −0.59 (0.18)
WOMAC Pain: LS Mean (SE) change from Baseline ([3]; 2.5 mg SC): −2.70 (0.17)
% of subjects with ≥50% reduction in the WOMAC Pain subscale ([3]; 2.5 mg SC): (45.4%)
Number of subjects with ≥50% reduction in the WOMAC Pain subscale ([3]; 2.5 mg SC): 128
WOMAC Pain: LS mean difference±SE versus placebo ([3]; 2.5 mg, index joint KL2/3): −0.19±0.23
WOMAC Pain: LS mean difference±SE versus placebo ([3]; 2.5 mg, index joint KL4): −0.84±0.28
WOMAC Pain subscale Change from Baseline: LS Mean ([3]; 5 mg SC): −1.69
WOMAC Pain subscale Change from Baseline: LS Mean Difference vs. placebo ([3]; 5 mg SC): −0.34
PGA-OA: LS Mean (SE) change from Baseline ([3]; 5 mg SC): −0.90 (0.06)
PGA-OA: LS Mean Difference vs. placebo (SE) ([3]; 5 mg SC): −0.19 (0.07)
WOMAC Pain: LS Mean Difference vs. placebo (SE) ([3]; 5 mg SC): −0.62 (0.18)
WOMAC Physical Function: LS Mean (SE) change from Baseline ([3]; 5 mg SC): −2.82 (0.17)
WOMAC Physical Function: LS Mean Difference vs. placebo (SE) ([3]; 5 mg SC): −0.71 (0.17)
WOMAC Pain: LS Mean (SE) change from Baseline ([3]; 5 mg SC): −2.85 (0.17)
% of subjects with ≥50% reduction in the WOMAC Pain subscale ([3]; 5 mg SC): (47.9%)
Number of subjects with ≥50% reduction in the WOMAC Pain subscale ([3]; 5 mg SC): 136
WOMAC Pain: LS mean difference±SE versus placebo ([3]; 5 mg, index joint KL2/3): −0.32±0.23
WOMAC Pain: LS mean difference±SE versus placebo ([3]; 5 mg, index joint KL4): −0.98±0.28
